Here are results for 31 molecules from patent publication US20250171431A1, “HETEROCYCLIC INHIBITORS OF IGF-1R FOR TREATMENT OF DISEASE” (HORIZON THERAPEUTICS IRELAND DAC, priority 2023, published 2025).

Bounds are passed on as bounds.

The target of this assay is IGF-1R (Homo sapiens (Human), UniProt P08069). Briefly: Example B-1: IGF-1R Assay (PC3 cells, IGF1 stimulation, AlphaLISA). In kind it is cell-based. The following applies: 200 ng/mL IGF1 stimulation, read-out: Biological Activity against IGF-1R IC50. In short, it runs like this:
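Readout is AlphaLISA signal from lysed PC3 cells, expressed as % inhibition versus vehicle and EC80 controls and banded by IC50. Before lysis, the cells were starved of serum for 2 h, exposed to 3× serially diluted compound for 2 h, and stimulated for 30 min with 200 ng/mL IGF1 (final).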

Sequence of IGF-1R (P08069 31-1367): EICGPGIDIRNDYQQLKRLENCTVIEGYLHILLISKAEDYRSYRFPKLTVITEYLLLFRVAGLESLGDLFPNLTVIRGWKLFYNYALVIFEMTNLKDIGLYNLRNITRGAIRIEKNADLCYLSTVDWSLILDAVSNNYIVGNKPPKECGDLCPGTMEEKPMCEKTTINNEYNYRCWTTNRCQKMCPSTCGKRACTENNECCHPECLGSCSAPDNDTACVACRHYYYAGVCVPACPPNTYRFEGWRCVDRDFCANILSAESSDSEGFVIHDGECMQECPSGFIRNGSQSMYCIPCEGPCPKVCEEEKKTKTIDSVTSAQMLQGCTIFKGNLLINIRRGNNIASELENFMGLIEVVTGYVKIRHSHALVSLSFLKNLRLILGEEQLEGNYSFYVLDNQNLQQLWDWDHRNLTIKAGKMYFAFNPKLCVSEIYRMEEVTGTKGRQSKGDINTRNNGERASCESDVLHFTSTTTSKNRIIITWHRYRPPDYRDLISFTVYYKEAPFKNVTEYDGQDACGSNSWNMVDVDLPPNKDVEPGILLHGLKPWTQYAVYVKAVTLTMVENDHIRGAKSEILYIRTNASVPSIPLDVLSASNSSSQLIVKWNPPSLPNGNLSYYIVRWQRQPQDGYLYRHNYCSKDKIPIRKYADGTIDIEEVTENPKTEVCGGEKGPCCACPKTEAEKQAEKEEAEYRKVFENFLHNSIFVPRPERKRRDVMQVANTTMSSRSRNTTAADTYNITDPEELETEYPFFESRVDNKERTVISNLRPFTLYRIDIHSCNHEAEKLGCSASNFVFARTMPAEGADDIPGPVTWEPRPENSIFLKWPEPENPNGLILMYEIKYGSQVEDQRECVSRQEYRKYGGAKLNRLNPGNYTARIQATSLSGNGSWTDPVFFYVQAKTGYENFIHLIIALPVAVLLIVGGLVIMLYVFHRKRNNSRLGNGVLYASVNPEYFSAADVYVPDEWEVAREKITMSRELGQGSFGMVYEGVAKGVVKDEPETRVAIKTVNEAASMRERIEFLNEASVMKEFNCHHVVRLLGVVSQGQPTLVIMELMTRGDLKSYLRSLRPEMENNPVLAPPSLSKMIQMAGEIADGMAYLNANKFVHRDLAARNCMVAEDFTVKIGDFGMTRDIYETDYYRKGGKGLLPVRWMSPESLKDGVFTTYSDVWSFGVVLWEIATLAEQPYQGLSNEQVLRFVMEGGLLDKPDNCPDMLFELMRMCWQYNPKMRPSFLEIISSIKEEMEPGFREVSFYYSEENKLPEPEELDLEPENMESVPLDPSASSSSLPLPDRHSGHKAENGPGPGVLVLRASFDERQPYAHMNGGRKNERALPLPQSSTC

The term IC50 denotes the midpoint of a concentration-inhibition curve. With `O=S1(=O)CCN(CCCOc2ccc(Nc3nccc(Nc4cnc5c(c4)C4CCC5C4)n3)cc2)CC1` (stereo not shown) [Compound 371, 4-[3-(p-{4-(3-azatricyclo[6.2.1.0^2,7]undeca-2,4,6-trien-5-ylamino)-2-pyrimidinylamino}phenoxy)propyl]-1λ^6,4-thiazinane-1,1-dione], the IC50 is at most 500 nM.
The value for `COc1cc(Nc2ncc(F)c(Nc3cnc4ccccc4c3)n2)ccc1OCCCN1CCCCC1` [Compound 431, 5-fluoro-2-[3-methoxy-4-(3-piperidinopropoxy)phenylamino]-4-(3-quinolylamino)pyrimidine] was at most 500 nM.
With `COc1cc(Nc2nccc(Nc3cnc4ccccc4c3)n2)cnc1O[C@H]1C[C@@H](N(C)C)C1` [Compound 132, N2-(6-((1s,3s)-3-(dimethylamino)cyclobutoxy)-5-methoxypyridin-3-yl)-N4-(quinolin-3-yl)pyrimidine-2,4-diamine], the IC50 was at most 500 nM.
In the case of `Brc1ccc2cc(Nc3ccnc(Nc4ccc(OCCCN5CCOCC5)cc4)n3)cnc2c1` [Compound 409, 4-(7-bromo-3-quinolylamino)-2-[p-(3-morpholinopropoxy)phenylamino]pyrimidine], the half-inhibitory concentration (IC50) is 2000 to 10000 nM.
To `c1cc(Nc2cnc3c(c2)C2CCC3CC2)nc(Nc2ccc(OCCCN3CCOCC3)cc2)n1` [Compound 373, 4-(3-azatricyclo[6.2.2.0^2,7]dodeca-2,4,6-trien-5-ylamino)-2-[p-(3-morpholinopropoxy)phenylamino] pyrimidine] belongs at most 500 nM; to `CN(C)[C@H]1C[C@@H](Oc2ccc(Nc3nccc(Nc4cnc5c(c4)OCCO5)n3)cc2)C1` [Compound 260, 4-(2,3-dihydro-1,4-dioxa-5-aza-7-naphthylamino)-2-{p-[(1s,3s)-3-(dimethylamino)cyclobutoxy]phenylamino}pyrimidine], at most 500 nM; to `COc1cc(Nc2nccc(Nc3cc4cccc(F)c4[nH]c3=O)n2)cnc1N1CCNC(C(F)(F)F)C1` (stereo not shown) [Compound 239, 8-fluoro-3-(2-{5-methoxy-6-[3-(trifluoromethyl)-1-piperazinyl]-3-pyridylamino}-4-pyrimidinylamino)-1,2-dihydro-2-quinolinone], at most 500 nM.
As to `COc1cc(Nc2ncc(F)c(Nc3cnc4cc(F)c(F)cc4c3)n2)ccc1O[C@H]1C[C@@H](N(C)C)C1` [Compound 173, N4-(6,7-difluoroquinolin-3-yl)-N2-(4-((1s,3s)-3-(dimethylamino)cyclobutoxy)-3-methoxyphenyl)-5-fluoropyrimidine-2,4-diamine], the half-maximal inhibitory concentration (IC50) was at most 500 nM.
The value for `COc1cc(Nc2nccc(Nc3cnc4cc(F)c(F)cc4c3)n2)cnc1O[C@H]1C[C@@H](N(C)C)C1` [Compound 289, 4-(6,7-difluoro-3-quinolylamino)-2-{5-methoxy-6-[(1s,3s)-3-(dimethylamino)cyclobutoxy]-3-pyridylamino}pyrimidine] was 500 to 2000 nM.
Consider `COc1cc(Nc2nccc(Nc3cc4cccc(F)c4[nH]c3=O)n2)cnc1N1CCN(C)CC1` [Compound 197, 8-fluoro-3-{2-[5-methoxy-6-(4-methyl-1-piperazinyl)-3-pyridylamino]-4-pyrimidinylamino}-1,2-dihydro-2-quinolinone], for which the half-maximal inhibitory concentration (IC50) was at most 500 nM.
`COc1cc(Nc2nccc(Nc3cnc4ccc(S(C)(=O)=O)cc4c3)n2)ccc1O[C@H]1C[C@H](N(C)C)C1` [Compound 329, 4-(6-mesyl-3-quinolylamino)-2-{3-methoxy-4-[(1r,3r)-3-(dimethylamino)cyclobutoxy]phenylamino}pyrimidine]: the IC50 was at most 500 nM.
As to `COc1cc(Nc2nccc(Nc3cnc4cc(F)cnc4c3)n2)cnc1O[C@H]1C[C@@H](N(C)C)C1` [Compound 85, 4-(7-fluoro-1,5-diaza-3-naphthylamino)-2-{5-methoxy-6-[(1s,3s)-3-(dimethylamino)cyclobutoxy]-3-pyridylamino}pyrimidine], the IC50 was 500 to 2000 nM.
To `COc1cc(Nc2nccc(Nc3cnc4cc(F)c(F)cc4c3)n2)cnc1N1CCN(C)C(C)(C)C1` [Compound 484, 4-(6,7-difluoro-3-quinolylamino)-2-[6-(3,3-dimethyl-4-methyl-1-piperazinyl)-5-methoxy-3-pyridylamino]pyrimidine] belongs at most 500 nM; to `COc1cc(Nc2nccc(Nc3cnc4ccc(C)cc4c3)n2)ccc1OCCCN1CCCCC1` [Compound 429, 2-[3-methoxy-4-(3-piperidinopropoxy)phenylamino]-4-(6-methyl-3-quinolylamino)pyrimidine], at most 500 nM.
The value for `COc1cc(Nc2nccc(Nc3cnc4c(Cl)cccc4c3)n2)ccc1N1CCOCC1` [Compound 461, 4-(8-chloro-3-quinolylamino)-2-(3-methoxy-4-morpholinophenylamino) pyrimidine] was at most 500 nM; that for `COc1cc(Nc2nccc(Nc3cnc4cc(F)c(F)cc4c3)n2)cnc1N1CCNCC1` [Compound 478, 4-(6,7-difluoro-3-quinolylamino)-2-[5-methoxy-6-(1-piperazinyl)-3-pyridylamino]pyrimidine] was at most 500 nM.
The value for `COc1cc(Nc2nccc(Nc3cnc4ccc(OC(F)(F)F)cc4c3)n2)ccc1OCCCN1CCCCC1` [Compound 6, 2-[3-methoxy-4-(3-piperidinopropoxy)phenylamino]-4-(6-trifluoromethoxy-3-quinolylamino)pyrimidine] was at most 500 nM; that for `CN(C)CC1Cc2ccc(Nc3nccc(Nc4cc5cccc(F)c5[nH]c4=O)n3)cc2O1` (stereo not shown) [Compound 243, 3-(2-{2-[(dimethylamino)methyl]-2,3-dihydro-1-benzofuran-6-ylamino}-4-pyrimidinylamino)-8-fluoro-1,2-dihydro-2-quinolinone] was at most 500 nM; that for `O=S1(=O)CCN(CCCOc2ccc(Nc3nccc(Nc4cnc5cc(Cl)ccc5c4)n3)cc2)CC1` [Compound 399, 4-(3-{p-[4-(7-chloro-3-quinolylamino)-2-pyrimidinylamino]phenoxy}propyl)-1λ^6,4-thiazinane-1,1-dione] was 2000 to 10000 nM.
For `COc1nc(N2CCC(C)(O)CC2)ccc1Nc1nccc(Nc2cc3cccc(F)c3[nH]c2=O)n1` [Compound 231, 8-fluoro-3-{2-[6-(4-hydroxy-4-methyl-1-piperidyl)-2-methoxy-3-pyridylamino]-4-pyrimidinylamino}-1,2-dihydro-2-quinolinone], the IC50 was at most 500 nM.
The value for `COc1cc(Nc2nccc(Nc3cnc4cncc(F)c4c3)n2)ccc1O[C@H]1C[C@@H](N(C)C)C1` [Compound 274, 4-(5-fluoro-1,7-diaza-3-naphthylamino)-2-{3-methoxy-4-[(1s,3s)-3-(dimethylamino)cyclobutoxy]phenylamino}pyrimidine] was 2000 to 10000 nM.
Take `CCc1ccc2ncc(Nc3ccnc(Nc4ccc(OCCCN5CCOCC5)c(OC)c4)n3)cc2c1` [Compound 104, 4-(6-ethyl-3-quinolylamino)-2-[3-methoxy-4-(3-morpholinopropoxy)phenylamino]pyrimidine]: the IC50 is at most 500 nM.
As to `C#Cc1ccc2ncc(Nc3ccnc(Nc4ccc(O[C@H]5C[C@@H](N(C)C)C5)c(OC)c4)n3)cc2c1` [Compound 302, 4-(6-ethynyl-3-quinolylamino)-2-{3-methoxy-4-[(1s,3s)-3-(dimethylamino)cyclobutoxy]phenylamino}pyrimidine], the concentration for half-maximal inhibition (IC50) is at most 500 nM.
For `c1ccc2ncc(Nc3ccnc(Nc4ccc(O[C@H]5CC[C@@H](N6CCOCC6)CC5)cc4)n3)cc2c1` [Compound 39, 4-(3-quinolylamino)-2-{p-[(1s, 4s)-4-morpholinocyclohexyloxy]phenylamino}pyrimidine], the IC50 is at most 500 nM.
The value for `COc1cc(Nc2nccc(Nc3cnc4c(c3)CCC(C)C4)n2)ccc1OCCCN1CCCCC1` (stereo not shown) [Compound 69, 2-[3-methoxy-4-(3-piperidinopropoxy)phenylamino]-4-(7-methyl-5,6,7,8-tetrahydro-3-quinolylamino)pyrimidine] was at most 500 nM; that for `COc1cc(Nc2nccc(Nc3cnc4c(c3)O[C@H]3CCC[C@@H]3O4)n2)ccc1O[C@H]1C[C@@H](N(C)C)C1` [Compound 192, 4-{(3S,7S)-2,8-dioxa-10-azatricyclo[7.4.0.03,7]trideca-1(13),9,11-trien-12-ylamino}-2-{3-methoxy-4-[(1s,3R)-3-(dimethylamino)cyclobutoxy]phenylamino}pyrimidine] was at most 500 nM; that for `COc1cc(Nc2nccc(Nc3cnc4c(OC(F)(F)F)cccc4c3)n2)ccc1O[C@H]1C[C@H](N(C)C)C1` [Compound 7, 2-{3-methoxy-4-[(1r,3r)-3-(dimethylamino)cyclobutoxy]phenylamino}-4-(8-trifluoromethoxy-3-quinolylamino)pyrimidine] was at most 500 nM.
To `O=S1(=O)CCN([C@H]2CC[C@@H](Oc3ccc(Nc4nccc(Nc5cnc6ccccc6c5)n4)cc3)CC2)CC1` [Compound 38, 4-[(1s,4s)-4-{p-[4-(3-quinolylamino)-2-pyrimidinylamino]phenoxy}cyclohexyl]-126,4-thiazinane-1,1-dione] belongs at most 500 nM; to `COc1cc(Nc2nccc(Nc3ccc4c(O)nccc4c3)n2)ccc1O[C@H]1C[C@@H](N(C)C)C1` [Compound 266, 6-(2-{3-methoxy-4-[(1s,3s)-3-(dimethylamino)cyclobutoxy]phenylamino}-4-pyrimidinylamino)-1-isoquinolinol], at most 500 nM; to `COc1cc(Nc2nccc(Nc3cnc4c(c3)OCC(C)(C)O4)n2)cnc1O[C@H]1C[C@@H](N(C)C)C1` [Compound 271, 4-(3,3-dimethyl-2,3-dihydro-1,4-dioxa-5-aza-7-naphthylamino)-2-{5-methoxy-6-[(1s,3s)-3-(dimethylamino)cyclobutoxy]-3-pyridylamino}pyrimidine], at most 500 nM.
Take `COc1cc(Nc2nccc(Nc3cccnc3C(N)=O)n2)ccc1O[C@H]1C[C@@H](N(C)C)C1` [Compound 284, 3-(2-{3-methoxy-4-[(1s,3s)-3-(dimethylamino)cyclobutoxy]phenylamino}-4-pyrimidinylamino)-2-pyridinecarboxamide]: the IC50 is at most 500 nM.
